Holding throughout (assay type): cell-based, human
One test deals with MDA-MB-231 cells. In words: Migration assay of MDA-MB-231 cells. Here is the method:
Migration assay: MDA-MB-231 cells were grown in 60 mm diameter dishes and treated as described in “Cell culture and compound treatment” for 12 h. The medium was then removed and replaced with growth medium lacking FBS but with the same concentration of compound. After 12 h of serum starvation, the cells were detached and seeded to ThinCert™ (GBO) 24-well hanging inserts with 8 μm pores (˜5×10^4 cells per insert). Fresh growth medium with FBS was dispended in a 24-well plate (600 μL each well), and the ThinCert™ hanging inserts containing cells were then placed into the wells. After incubating for 24 h, the growth medium in the inserts was removed, and the remaining cells were washed twice with 1×DPBS. Cells were fixed by addition of 3% (w/v) paraformaldehyde (PFA) prepared in 1×DPBS at room temperature for 20 min. The PFA solution was removed, and cells were washed twice with 1×PBS. The cells were then stained with Crystal Violet (10 mg/mL; 4:1 H2O: MeOH) at room temperature for 20 min. A cotton swab was used to gently remove non-migrating cells from the top side of the filter. The remaining cells were then imaged by microscopy and counted for quantification (3 fields of view per sample).

Test [1] concerns MCF-10a cells that express WT pri-miR-27a. In words: Migration of MCF-10a cells expressing WT pri-miR-27a. As to the method: (§1) MCF-10a cells were transfected with plasmids to express pri-miR-27a and mutant pri-miR-27a in 12- or 24-well plates with Lipofectamine 2000 per the manufacturer's protocol. For treatment of compounds, stocks were diluted in growth medium and added to cells for 48 h. The miRCURY miR-27a LNA inhibitor (QIAGEN, Cat #339121) was used as a positive control by diluting in growth medium to a final concentration of 1 nM. The miRCURY LNA Negative Control (QIAGEN, Cat #YI00199007-DDA) was used as a negative control, which has also diluted in growth medium to a final concentration of 1 nM.
Migration assay: MDA-MB-231 cells were grown in 60 mm diameter dishes and treated as described in “Cell culture and compound treatment” for 12 h. The medium was then removed and replaced with growth medium lacking FBS but with the same concentration of compound. After 12 h of serum starvation, the cells were detached and seeded to ThinCert™ (GBO) 24-well hanging inserts with 8 μm pores (˜5×10^4 cells per insert). Fresh growth medium with FBS was dispended in a 24-well plate (600 μL each well), and the ThinCert™ hanging inserts containing cells were then placed into the wells. After incubating for 24 h, the growth medium in the inserts was removed, and the remaining cells were washed twice with 1×DPBS. […] The remaining cells were then imaged by microscopy and counted for quantification (3 fields of view per sample).

Another test has as its system ZBTB10. The experiment in a line: Western blot of ZBTB10 in MDA-MB-231 cells. The conditions noted are these: relative to β-actin, 48 h.
For the next test, the system named is miR-23a. In words: RT-qPCR of mature miR-23a in MDA-MB-231 cells. As to the method: (§2) Cell lines. Compounds were tested in MDA-MB-231 TNBC cells (HTB-26, ATCC), LNCaP metastatic prostate cancer cells (gifted from Junli Luo lab), MCF-7 (HTB-22, ATCC) breast cancer cells, HeLa cervical adenocarcinoma cells (CCL-2, ATCC), and MCF-10a, a model of healthy breast epithelial cells (CRL-10317, ATCC).
Cell culture and compound treatment. All cells were maintained at 37° C. with 5% CO2. MDA-MB-231 and LNCaP cells were cultured in RPMI 1640 medium with L-glutamine & 25 mM HEPES (Corning) supplemented with 10% (v/v) fetal bovine serum (FBS; Sigma) and 1× (v/v) Antibiotic-Antimycotic solution (Corning). MCF-7 and HeLa cells were cultured in DMEM medium with 4.5 g/L glucose (Corning), supplemented with 10% FBS, 1× (v/v) Glutagro (Corning), and 1× (v/v) Antibiotic-Antimycotic solution. […]
Analysis of mRNA abundance: Each cell line was grown as a monolayer in 12- or 24-well plates and treated as described in “Cell culture and compound treatment”. […] Relative abundance of mature miRNAs was calculated by normalizing to RNU6, and relative abundance for pri-miRNAs and mRNAs was calculated by normalizing to 18S ribosomal RNA, using the AAC, method. […]

In a further test the test system is pri-miR-27a. In words: RT-qPCR of pri- and mature miR-27a in MDA-MB-231 TNBC cells. The conditions noted are these: MDA-MB-231, RT-qPCR. Here is the method:
as §2
Cell culture and compound treatment. All cells were maintained at 37° C. with 5% CO2. MDA-MB-231 and LNCaP cells were cultured in RPMI 1640 medium with L-glutamine & 25 mM HEPES (Corning) supplemented with 10% (v/v) fetal bovine serum (FBS; Sigma) and 1× (v/v) Antibiotic-Antimycotic solution (Corning). MCF-7 and HeLa cells were cultured in DMEM medium with 4.5 g/L glucose (Corning), supplemented with 10% FBS, 1× (v/v) Glutagro (Corning), and 1× (v/v) Antibiotic-Antimycotic solution. MCF10a cells were cultured in DMEM/F12 50/50 with L-glutamine & 15 mM HEPES (Corning), supplemented with 10% FBS, 20 ng/mL human epidermal growth factor (Pepro Tech Inc.), […] hydrocortisone (Pfaltz & Bauer), 100 ng/mL cholera toxin (Sigma-Aldrich), 10 μg/mL insulin (Sigma-Aldrich), and 1× (v/v) Antibiotic-Antimycotic solution.
as §1
Analysis of mRNA abundance: Each cell line was grown as a monolayer in 12- or 24-well plates and treated as described in “Cell culture and compound treatment”. After 48 h, the cells were lysed, and total RNA was harvested using a Zymo Quick RNA Miniprep Kit per the manufacturer's protocol. To measure the abundance of mature miRNAs, approximately 250 ng of total RNA was reverse transcribed using the High Flex Buffer provided in a miScript II RT Kit (Qiagen) per the manufacturer's protocol (10 μL total reaction volume). For pri-miRNAs and mRNA, approximately 300 ng of total RNA was reverse transcribed using a qScript cDNA synthesis kit (10 μL total reaction volume, Quanta BioSciences). For all types of RNAs, 2 μL of the RT reaction was used for qPCR using SYBR Green Master Mix and a QuantStudio™ 5 Real-Time PCR System. Relative abundance of mature miRNAs was calculated by normalizing to RNU6, and relative abundance for pri-miRNAs and mRNAs was calculated by normalizing to 18S ribosomal RNA, using the […]. (12)

The next test concerns PDCD4. In words: Western blot of PDCD4 in MDA-MB-231 cells. The conditions noted are these: relative to β-actin, 48 h. Here is the method: Western Blotting: MDA-MB-231 cells were grown in 6-well plates to ˜80% confluency in complete growth medium and then incubated with 9 at the indicated concentrations for 48 h. Total protein was extracted using M-PER Mammalian Protein Extraction Reagent (Pierce Biotechnology) using the manufacturer's protocol and quantified using a Micro BCA Protein Assay Kit (Pierce Biotechnology). Approximately 50 μg of total protein was separated on a 10% SDS-polyacrylamide gel, and then transferred to a PVDF membrane. The membrane was washed with 1× Tris-buffered saline (TBS) and then blocked in 1×TBST (1×TBS containing 0.1% (v/v) Tween-20) containing 5% (w/v) milk for 1 h at room temperature. […] The membrane was again washed with 1×TBST, and protein expression was quantified using SuperSignal West Pico Chemiluminescent Substrate (Pierce Biotechnology) per the manufacturer's protocol.
To quantify b-actin expression, used for normalization, the membrane was stripped using 1× Stripping Buffer (200 mM glycine, pH 2.2 and 0.1% SDS) followed by washing in 1×TBST. […] The fold change of the target protein expression (PP4C or PDCD4) was calculated by normalizing its band intensity to b-actin band intensity using ImageJ.

Data on one compound can be found in patent US20250051762A1, “PLATFORM USING DNA-ENCODED SMALL MOLECULE LIBRARIES AND RNA SELECTION TO DESIGN SMALL MOLECULES THAT TARGET RNA” (University of Florida Research Foundation, Incorporated, priority 2021, published 2025).

Molecules are shown by their SMILES.

Consider `C#CCN(CC(N)=O)C(=O)C[C@H](Cc1c[nH]c2ccccc12)NC(=O)[C@@H]1C[C@H](NC(=O)Cn2c(=O)[nH]c3ccccc3c2=O)CN1` [Compound 9], for which the “number of migrated cells” value in the test on MDA-MB-231 cells (MDA-MB-231, normalized to vehicle) is on record as “dose dependent reduction”. In addition, the “concentration with statistically significant phenotype reduction” value in the test with MDA-MB-231 cells (MDA-MB-231 migration) was 100 nM. For the same compound, in test [1], the migration result was “reduced migration”. Moreover, the ZBTB10 expression entry in the test on ZBTB10 is reported as “upregulation”. In addition, the “effect on levels of mature miR-23a” value with miR-23a was “no effect”. In addition, in the test on pri-miR-27a, the “inhibition of miR-27a (comparison of 5, 7, 9, 10)” value is “inhibited miR-27a to a greater extent than 5 and 7”. Besides, the pri-miR-27a levels result with pri-miR-27a (48 h) is recorded as “increased”. Also, the IC50 in the test on pri-miR-27a (48 h, read-out: IC50 for reduction of mature miR-27a levels) was around 1000 nM. The PDCD4 expression result in the test on PDCD4 is “upregulation”.
